The subject of one assay is HIV-1 K103N-L100I mutant. The assay can be described thus: microbe, parasite or virus in culture. Format: cell-based, human immunodeficiency virus type 1 (HIV-1). Conditions: Human immunodeficiency virus 1, HeLa, read-out: EC50 mutant K103N-L100I, mutant K103N-L100I.
A further assay has as its system wild type HIV-1. The assay can be described thus: microbe, parasite or virus in culture. Conditions: Human immunodeficiency virus 1, Hela-JC53. Format: cell-based, human immunodeficiency virus type 1 (HIV-1).

`Cc1cc(-c2c(C)noc2C)cc(C)c1Oc1nc(Nc2ccc(C#N)cc2)nc2ccn(C)c12` [Example 35, 4-(4-(4-(3,5-Dimethylisoxazol-4-yl)-2,6-dimethylphenoxy)-5-methyl-5H-pyrrolo[3,2-d]pyrimidin-2-ylamino) benzonitrile]: the EC50 in the assay with HIV-1 K103N-L100I mutant and in the assay with wild type HIV-1 was 1 to 10 nM in each case.

Consider `Cc1cc(-c2cccc(C(=O)N(C)C)c2)cc(C)c1Oc1nc(Nc2ccc(C#N)cc2)nc2ccn(C)c12` [Example 36, 4′-(2-(4-Cyanophenylamino)-5-methyl-5H-pyrrolo[3,2-d]pyrimidin-4-yloxy)-N,N,3′,5′-tetramethylbiphenyl-3-carboxamide], for which the results for the EC50 in the assay on HIV-1 K103N-L100I mutant and in the assay with wild type HIV-1 were greater than 10 nM and 1 to 10 nM, respectively.

`Cc1cc(-c2ccnc3ccccc23)cc(C)c1Oc1nc(Nc2ccc(C#N)cc2)nc2ccn(C)c12` [Example 37]: the EC50 (as a rule, the concentration at which the effect is half-maximal) with HIV-1 K103N-L100I mutant is greater than 10 nM; in the assay on wild type HIV-1, 1 to 10 nM.

Take `Cc1cc(-c2cccc3ncccc23)cc(C)c1Oc1nc(Nc2ccc(C#N)cc2)nc2ccn(C)c12` [Example 38, 4-(4-(2,6-Dimethyl-4-(quinolin-5-yl)phenoxy)-5-methyl-5H-pyrrolo[3,2-d]pyrimidin-2-ylamino) benzonitrile]: the EC50 with HIV-1 K103N-L100I mutant and in the assay on wild type HIV-1 was 1 to 10 nM each time.

On to `Cc1cc(-c2cccc3cnccc23)cc(C)c1Oc1nc(Nc2ccc(C#N)cc2)nc2ccn(C)c12` [Example 39, 4-(4-(4-(Isoquinolin-5-yl)-2,6-dimethylphenoxy)-5-methyl-5H-pyrrolo[3,2-d]pyrimidin-2-ylamino) benzonitrile], for which the EC50 in the assay on HIV-1 K103N-L100I mutant and in the assay with wild type HIV-1 was greater than 10 nM each time.

On to `Cc1cc(-c2cncc3ccccc23)cc(C)c1Oc1nc(Nc2ccc(C#N)cc2)nc2ccn(C)c12` [Example 40, 4-(4-(4-(Isoquinolin-4-yl)-2,6-dimethylphenoxy)-5-methyl-5H-pyrrolo[3,2-d]pyrimidin-2-ylamino) benzonitrile], for which the EC50 in the assay on HIV-1 K103N-L100I mutant is greater than 10 nM; in the assay on wild type HIV-1, 1 to 10 nM.

Take `Cc1cc(-c2cnc3ccccc3c2)cc(C)c1Oc1nc(Nc2ccc(C#N)cc2)nc2ccn(C)c12` [Example 41, 4-(4-(2,6-Dimethyl-4-(quinolin-3-yl)phenoxy)-5-methyl-5H-pyrrolo[3,2-d]pyrimidin-2-ylamino) benzonitrile]: the results for the EC50 in the assay on HIV-1 K103N-L100I mutant and with wild type HIV-1 were greater than 10 nM and 1 to 10 nM, respectively.

For `Cc1cc(-c2ccc(S(=O)(=O)N(C)C)cc2)cc(C)c1Oc1nc(Nc2ccc(C#N)cc2)nc2ccn(C)c12` [Example 42, 4′-(2-(4-Cyanophenylamino)-5-methyl-5H-pyrrolo[3,2-d]pyrimidin-4-yloxy)-N,N,3′,5′-tetramethylbiphenyl-4-sulfonamide], the figures for the concentration giving a half-maximal response (EC50) with HIV-1 K103N-L100I mutant and with wild type HIV-1 were greater than 10 nM and 1 to 10 nM, respectively.

Consider `Cc1cc(-c2cccc3cccnc23)cc(C)c1Oc1nc(Nc2ccc(C#N)cc2)nc2ccn(C)c12` [Example 43, 4-(4-(2,6-Dimethyl-4-(quinolin-8-yl)phenoxy)-5-methyl-5H-pyrrolo[3,2-d]pyrimidin-2-ylamino) benzonitrile], for which the EC50 is greater than 10 nM in the assay with HIV-1 K103N-L100I mutant and 1 to 10 nM with wild type HIV-1.

In the case of `Cc1cc(-c2ccc(C#N)cc2)cc(C)c1Oc1nc(Nc2ccc(C#N)cc2)nc2ccn(C)c12` [Example 44, 4′-(2-(4-Cyanophenylamino)-5-methyl-5H-pyrrolo[3,2-d]pyrimidin-4-yloxy)-3′,5′-dimethylbiphenyl-4-carbonitrile], the EC50 with HIV-1 K103N-L100I mutant and in the assay with wild type HIV-1 was 1 to 10 nM throughout.

For `Cc1cc(-c2ccnn2C)cc(C)c1Oc1nc(Nc2ccc(C#N)cc2)nc2nc[nH]c12` [Example 47, 4-(6-(2,6-Dimethyl-4-(1-methyl-1H-pyrazol-5-yl)phenoxy)-7H-purin-2-ylamino)benzonitrile], the EC50 in the assay on HIV-1 K103N-L100I mutant is greater than 10 nM; in the assay with wild type HIV-1 it was 1 to 10 nM.

Take `Cc1cc(-c2ccncn2)cc(C)c1Oc1nc(Nc2ccc(C#N)cc2)nc2ccn(C)c12` [Example 48, 4-(4-(2,6-Dimethyl-4-(pyrimidin-4-yl)phenoxy)-5-methyl-5H-pyrrolo [3,2-d]pyrimidin-2-ylamino)benzonitrile]: the EC50 in the assay with HIV-1 K103N-L100I mutant and in the assay with wild type HIV-1 was 1 to 10 nM each time.

Consider `COc1ccc(Cn2cnc3nc(Nc4ccc(C#N)cc4)nc(Oc4c(C)cc(-c5ccc(C(N)=O)cc5)cc4C)c32)cc1` [Example 49, 4′-(2-(4-Cyanophenylamino)-7-(4-methoxybenzyl)-7H-purin-6-yloxy)-3′,5′-dimethylbiphenyl-4-carboxamide], for which the EC50 with HIV-1 K103N-L100I mutant was greater than 10 nM; in the assay with wild type HIV-1, 1 to 10 nM.

`Cc1cc(-c2ccncc2)cc(C)c1Oc1nc(Nc2ccc(C#N)cc2)nc2c1cnn2C` [Example 51, 4-(4-(2,6-Dimethyl-4-(pyridin-4-yl)phenoxy)-1-methyl-1H-pyrazolo[3,4-d]pyrimidin-6-ylamino) benzonitrile]: the EC50 was greater than 10 nM in the assay with HIV-1 K103N-L100I mutant and 1 to 10 nM with wild type HIV-1.

For the compound `Cc1cc(-c2ccc(S(N)(=O)=O)cc2)cc(C)c1Oc1nc(Nc2ccc(C#N)cc2)nc2c1ncn2C` [Example 52, 4′-(2-(4-Cyanophenylamino)-9-methyl-9H-purin-6-yloxy)-3′,5′-dimethylbiphenyl-4-sulfonamide], the EC50 is 1 to 10 nM in the assay with HIV-1 K103N-L100I mutant and less than 1 nM in the assay on wild type HIV-1.

For `Cc1cc(-c2ccc(N)cc2)cc(C)c1Oc1nc(Nc2ccc(C#N)cc2)nc2ccn(C)c12` [Example 54, 4-(4-(4′-Amino-3,5-dimethylbiphenyl-4-yloxy)-5-methyl-5H-pyrrolo[3,2-d]pyrimidin-2-ylamino) benzonitrile], the EC50 is greater than 10 nM with HIV-1 K103N-L100I mutant and less than 1 nM in the assay with wild type HIV-1.

Regarding `Cc1cc(-c2ccc(C(N)=O)cc2F)cc(C)c1Oc1nc(Nc2ccc(C#N)cc2)nc2ncn(C)c12` [Example 55, 4′-(2-(4-Cyanophenylamino)-7-methyl-7H-purin-6-yloxy)-2-fluoro-3′,5′-dimethylbiphenyl-4-carboxamide], the EC50 with HIV-1 K103N-L100I mutant and with wild type HIV-1 was 1 to 10 nM each time.

With `Cc1cc(-c2ccc(C(N)=O)cc2F)cc(C)c1Oc1nc(Nc2ccc(C#N)cc2)nc2c1ncn2C` [Example 56, 4′-(2-(4-Cyanophenylamino)-9-methyl-9H-purin-6-yloxy)-2-fluoro-3′,5′-dimethylbiphenyl-4-carboxamide], the EC50 in the assay on HIV-1 K103N-L100I mutant and in the assay with wild type HIV-1 was 1 to 10 nM throughout.

For `Cc1cc(-c2ccnnc2)cc(C)c1Oc1nc(Nc2ccc(C#N)cc2)nc2ccn(C)c12` [Example 57, 4-(4-(2,6-dimethyl-4-(pyridazin-4-yl)phenoxy)-5-methyl-5H-pyrrolo[3,2-d]pyrimidin-2-ylamino) benzonitrile], the EC50 with HIV-1 K103N-L100I mutant is 1 to 10 nM; in the assay on wild type HIV-1, less than 1 nM.

For the compound `Cc1cc(-c2ccnnc2)cc(C)c1Oc1nc(Nc2ccc(C#N)cc2)nc2ncn(C)c12` [Example 58, 4-(6-(2,6-Dimethyl-4-(pyridazin-4-yl)phenoxy)-7-methyl-7H-purin-2-ylamino)benzonitrile], the EC50 in the assay on HIV-1 K103N-L100I mutant and with wild type HIV-1 was 1 to 10 nM throughout.

Take `Cc1cc(-c2ccnnc2)cc(C)c1Oc1nc(Nc2ccc(C#N)cc2)nc2c1ncn2C` [Example 59, 4-(6-(2,6-Dimethyl-4-(pyridazin-4-yl)phenoxy)-9-methyl-9H-purin-2-ylamino)benzonitrile]: the EC50 in the assay on HIV-1 K103N-L100I mutant was greater than 10 nM; in the assay on wild type HIV-1 it was 1 to 10 nM.

For `Cc1cc(-c2ccc(C(N)=O)nc2)cc(C)c1Oc1nc(Nc2ccc(C#N)cc2)nc2ccn(C)c12` [Example 60, 5-(4-(2-(4-Cyanophenylamino)-5-methyl-5H-pyrrolo[3,2-d]pyrimidin-4-yloxy)-3,5-dimethyl-phenyl)picolinamide], the values for the EC50 in the assay with HIV-1 K103N-L100I mutant and in the assay with wild type HIV-1 were greater than 10 nM and 1 to 10 nM, respectively.

On to `Cc1cc(-c2ccc(F)cc2)cc(C)c1Oc1nc(Nc2ccc(C#N)cc2)nc2ccn(C)c12` [Example 62, 4-(4-(4′-fluoro-3,5-dimethylbiphenyl-4-yloxy)-5-methyl-5H-pyrrolo[3,2-d]pyrimidin-2-ylamino) benzonitrile], for which the EC50 in the assay with HIV-1 K103N-L100I mutant is greater than 10 nM; in the assay on wild type HIV-1, 1 to 10 nM.

Regarding `Cc1cc(-c2ccc(F)c(C#N)c2)cc(C)c1Oc1nc(Nc2ccc(C#N)cc2)nc2ccn(C)c12` [Example 63, 4′-(2-(4-cyanophenylamino)-5-methyl-5H-pyrrolo[3,2-d]pyrimidin-4-yloxy)-4-fluoro-3′,5′-dimethylbiphenyl-3-carbonitrile], the EC50 is 1 to 10 nM with HIV-1 K103N-L100I mutant and less than 1 nM in the assay on wild type HIV-1.

`Cc1cc(-c2cnccc2C#N)cc(C)c1Oc1nc(Nc2ccc(C#N)cc2)nc2ccn(C)c12` [Example 64, 3-(4-(2-(4-cyanophenylamino)-5-methyl-5H-pyrrolo[3,2-d]pyrimidin-4-yloxy)-3,5-dimethylphenyl) isonicotinonitrile]: the EC50 with HIV-1 K103N-L100I mutant and in the assay with wild type HIV-1 was less than 1 nM throughout.

Turning to `Cc1cc(-c2cc(F)cc(F)c2)cc(C)c1Oc1nc(Nc2ccc(C#N)cc2)nc2ccn(C)c12` [Example 65, 4-(4-(3′,5′-difluoro-3,5-dimethylbiphenyl-4-yloxy)-5-methyl-5H-pyrrolo[3,2-d]pyrimidin-2-ylamino) benzonitrile], the EC50 with HIV-1 K103N-L100I mutant was greater than 10 nM; in the assay on wild type HIV-1, less than 1 nM.

As for `Cc1cc(-c2cc(F)c(F)c(F)c2)cc(C)c1Oc1nc(Nc2ccc(C#N)cc2)nc2ccn(C)c12` [Example 66], the EC50 in the assay on HIV-1 K103N-L100I mutant is 1 to 10 nM; in the assay on wild type HIV-1 it was less than 1 nM.

As for `COc1c(F)cc(F)cc1-c1cc(C)c(Oc2nc(Nc3ccc(C#N)cc3)nc3ccn(C)c23)c(C)c1` [Example 67, 4-(4-(3′,5′-difluoro-2′-methoxy-3,5-dimethylbiphenyl-4-yloxy)-5-methyl-5H-pyrrolo[3,2-d]pyrimidin-2-ylamino) benzonitrile], the EC50 in the assay on HIV-1 K103N-L100I mutant is greater than 10 nM; in the assay with wild type HIV-1, less than 1 nM.

For the compound `Cc1cc(-c2ccc3c(c2)OCCO3)cc(C)c1Oc1nc(Nc2ccc(C#N)cc2)nc2ccn(C)c12` [Example 68, 4-(4-(4-(2,3-dihydrobenzo [b][1,4]dioxin-6-yl)-2,6-dimethylbipheoxy)-5-methyl-5H-pyrrolo[3,2-d]pyrimidin-2-ylamino) benzonitrile], the values for the EC50 in the assay on HIV-1 K103N-L100I mutant and with wild type HIV-1 were greater than 10 nM and less than 1 nM, respectively.

The values above are taken from patent US8207178B2 (priority 2007, dated 2012).
